# Tested on: pig model of obstructive sleep apnea (OSA)
# Assay: pig model of obstructive sleep apnea (OSA): upper airway collapsibility under negative pressure
# Assay type: in vivo, German Landrace pigs
# Settings: anaesthetized pigs
# Source text: The therapeutic potential of the compounds of formula (I) according to the present invention in sleep apnea has been assessed preclinically in a pig model of obstructive sleep apnea (OSA).
# Using negative pressure, it is possible to induce collapse and thus obstruction of the upper respiratory tract in anaesthetized, spontaneously breathing pigs (Wirth K. J. et al., Sleep 36(5) (2013) pp. 699-708).
# German Landrace pigs are used for the model. The pigs are anaesthetized and tracheotomized. Two tracheal cannulas are inserted into the trachea, one into the rostral part and the other into the caudal part of the trachea. Using a connection piece, the rostral cannula is connected to a tube to the negative pressure device and to the distal tracheal cannula. The distal tracheal cannula is additionally connected to a tube with an open end to atmosphere via a connection piece that served for free tracheal breathing, circumventing the upper airway. By appropriate opening and clamping of those tubes breathing can be switched from nasal breathing to breathing through the caudal tracheal cannula, circumventing the upper airway, and the (isolated) upper airway can be connected to the negative pressure device, causing airflow in the inspiratory direction.
# At certain points in time, the collapsibility of the upper respiratory tract is tested by having the pig breathe via the caudal cannula and applying negative pressures of −50, −100 and −150 cm water head (cm H2O) to the upper respiratory tract. This causes the upper respiratory tract to collapse, which manifests itself in an interruption of the airflow and a pressure drop in the tube system. This test is conducted prior to the administration of the test substance and at certain intervals after the administration of the test substance. An appropriately effective test substance can prevent this collapse of the respiratory tract in the inspiratory phase.
structure (smiles),measurement,setting,value
"O=C(c1cnc(N2CC3(COC3)C2)nc1)N1CCC(N2CCc3ccccc3C2)CC1 [[4-(3,4-Dihydroisoquinolin-2(1H)-yl)piperidin-1-yl][2-(2-oxa-6-azaspiro[3.3]hept-6-yl)pyrimidin-5-yl]methanone]","inhibited upper airway collapsibility, duration","i.v. bolus 0.007 mg/kg followed by i.v. infusion 0.0025 mg/kg/h for four hours, negative pressure −50 cm water head",up to two hours
same,"inhibited upper airway collapsibility, duration","i.v. bolus 0.007 mg/kg followed by i.v. infusion 0.0025 mg/kg/h for four hours, negative pressure −100 cm water head",up to 90 minutes
same,"inhibited upper airway collapsibility, duration","i.v. bolus 0.07 mg/kg followed by i.v. infusion 0.025 mg/kg/h for four hours, negative pressure −50 cm water head",up to four hours
same,"inhibited upper airway collapsibility, duration","i.v. bolus 0.07 mg/kg followed by i.v. infusion 0.025 mg/kg/h for four hours, negative pressure −100 cm water head",up to four hours
same,"inhibited upper airway collapsibility, duration","i.v. bolus 0.07 mg/kg followed by i.v. infusion 0.025 mg/kg/h for four hours, negative pressure −150 cm water head",up to two hours

# Reference: patent US20220016113A1, “?2-ADRENOCEPTOR SUBTYPE C (ALPHA-2C) ANTAGONISTS FOR THE TREATMENT OF SLEEP APNEA” (Bayer Aktiengesellschaft, priority 2018, published 2022)
